Test results as given in patent US20250057820A1, “AUTOTAXIN (ATX) INHIBITOR FOR THE TREATMENT OF PANCREATIC CANCER” (priority 2021, published 2025).

Legend:
[1] = test system: mPA6115-luc tumour cells; test: orthotopic mPA6115-luc mouse model of pancreatic cancer; assay type: in vivo; details: 10 mg/kg BID oral gavage, female C57BL/6 mice, FIG. 2
Experimental: This model is constituted by the implantation of mPA6115-luc cells originating from a spontaneous developed donor tumour in KPC mice into the pancreas of female wildtype C57BL/6 recipient mice.
Each mouse was inoculated into the subcapsular region of the pancreas with mPA6115-luc tumour cells (1×10^6) in 50 uL PBS with Matrigel (1:1). The date of tumour cell inoculation was denoted as day 0.
The randomization started 4 days after tumour cell inoculation based on the total flux (p/s, minimum flux>1E^6). 10 mice per group were assigned to treatment by BID oral gavage with vehicle (1% methylcellulose) or Compound 1 (10 mg/kg in 1% methylcellulose). Tumour growth and metastasis were imaged twice per week by bioluminescent imaging.

[2] = test system: PANC-1 tumour cells; test: subcutaneous PANC-1 xenograft mouse model of pancreatic cancer; assay type: in vivo; details: BALB/c Nude mice, subcutaneous PANC-1, FIG. 3
Experimental: The therapeutic efficacy of Compound 1 was evaluated in the subcutaneous PANC-1 mouse model of pancreatic cancer.
BALB/c Nude mice were inoculated subcutaneously in the right front flank region with PANC-1 tumour cells (5×10^6) in 0.1 ml of PBS. The date of tumour cell inoculation was denoted as day 0. The randomization started when the mean tumour size>100 mm^3. 10 mice were enrolled per study group. Tumour growth and body weights were measured twice per week.

[3] = test system: PANC-1 tumour cells; details: for tumour growth inhibition: BALB/C nude mice, tumour weight at day 42
Experimental: The therapeutic efficacy of Compound 1 with or without gemcitabine was evaluated in the orthotopic PANC-1 mouse model of pancreatic cancer. This model is constituted by the implantation of PANC-1 tumor cells into the pancreas […] in BALB/C nude mice.
Each mouse was inoculated into the subcapsular region of the pancreas with PANC-1 tumour cells (3×10^6) in 50 uL PBS with Matrigel (1:1). The date of tumour cell inoculation was denoted as day 0. Randomization started 10 days after tumour cell inoculation based on body weight. 10 mice per group were assigned to treatment by oral gavage with vehicle (1% methylcellulose, BID), gemcitabine (25 mg/kg, Q4D), Compound 1 (10 mg/kg, BID), or Compound 1 (10 mg/kg, BID) and gemcitabine (25 mg/kg, Q4D). Tumor sizes were measured by weight after termination at day 42.

[4] = test system: RC416 tumour cells; test: orthotopic RC416 mouse model of pancreatic cancer (survival); assay type: in vivo; details: Compound 1 10 mg/kg BID p.o., galunisertib 50 mg/kg BID p.o., gemcitabine 75 mg/kg QW i.p.; max 28 days treatment; FIG. 5
Excerpt: This model is constituted by the implantation of RC416 cells originating from a spontaneous developed donor tumour in KPC mice into the pancreas of female wildtype C57BL/6 recipient mice. The pathology and tumour microenvironment in this model closely resemble human pancreatic cancer and is characterized by high circulating ATX and TGF-β.
The day of tumour cell inoculation was denoted as day 0. Randomization started 7 days after tumor cell inoculation, based on body weight. 5 mice per group were assigned to treatment, with vehicle (1% methylcellulose, BID p.o.), Compound 1 (10 mg/kg, BID p.o.), galunisertib (50 mg/kg, BID p.o.), gemcitabine (75 mg/kg, QW i.p.), or the combinations of Compound 1 plus gemcitabine, Compound 1 plus galunisertib and gemcitabine, and galunisertib plus gemcitabine, Mice were treated for a maximum of 28 days and anti-tumour activity was measured by survival.

[5] = test system: pancreatic cancer; details: pancreatic cancer patients, standard treatment; cited from earlier work
[6] = Compound 1 10 mg/kg BID, gemcitabine 25 mg/kg Q4D

Row | Structure (SMILES) | tumour outgrowth based on total bioluminescence [1] | tumour outgrowth [2] | tumour growth inhibition [3, 6] [%] | mice died or sacrificed for reaching humane endpoints (mortality) ([3]; 10 mice per group, Compound 1 10 mg/kg BID, gemcitabine 25 mg/kg Q4D) [mice] | Number of Mice on Day 42 ([3]; BALB/C nude, mouse, in vivo, 42 day) | Pancreas Size (mg) on Day 42 ([3]; Day 42) | survival [4] | average median overall survival [5] [months] | response rate [5]
1 | C[C@H](NC(=O)CCc1nc2cccnc2n1Cc1ccc(OC(F)(F)F)cc1)c1ccc(Cl)cc1 [Compound 1, N—[(S)-1-(4-chloro-phenyl)-ethyl]-3-[3-(4-trifluoromethoxy-benzyl)-3H-imidazo[4,5-b]pyridin-2-yl]-propionamide] | significantly reduced tumour outgrowth | reduced tumour outgrowth | 5 | – | – | – | – | – | –
2 | Nc1ccn([C@@H]2O[C@H](CO)[C@@H](O)C2(F)F)c(=O)n1 [gemcitabine] | – | – | 41 | 5 | 5 | 549 + 44 mg | limited survival benefit | 6 | 5-10%
